We go through 21 molecules from ChEMBL document CHEMBL3046786, “Synthesis of piperazinyl benzothiazole/benzoxazole derivatives coupled with 1,3,4-oxadiazole-2-thiol: novel hybrid heterocycles as anticancer agents” (Med Chem Res, 2013).

Molecules are shown by their SMILES.

What all share (format): functional, cell-based
The test system of experiment [1] is A-431. The experiment is described as follows: Anticancer activity against Homo sapiens (human) A431 cells assessed as inhibition of cell viability after 72 hr by MTT assay. Conditions: A-431, 72 h. On the technique in general: Formazan colour is commonly taken as a measure of viable cells.
The subject of experiment [2] is HepG2. In words: Anticancer activity against Homo sapiens (human) HepG2 cells assessed as inhibition of cell viability after 72 hr by MTT assay. To be noted: HepG2, 72 h.
For experiment [3], the system named is A549. In words: Anticancer activity against Homo sapiens (human) A549 cells assessed as inhibition of cell viability after 72 hr by MTT assay. To be noted: A549, 72 h.
Experiment [4] relates to HeLa. In words: Anticancer activity against Homo sapiens (human) HeLa cells assessed as inhibition of cell viability after 72 hr by MTT assay.
For experiment [5], the system named is MCF7. In words: Anticancer activity against Homo sapiens (human) MCF7 cells assessed as inhibition of cell viability after 72 hr by MTT assay. To be noted: MCF7, 72 h.

As to `O=[N+]([O-])c1ccc(-c2nnc(SCCCN3CCN(c4nc5ccccc5s4)CC3)o2)cc1`, the 50% inhibitory concentration (IC50) (usually the concentration needed to halve the response being measured) in experiment [1] came out at 46.5 µM; in experiment [2] it was 93.3 µM; in experiment [3], 96.6 µM; in experiment [4], 97.8 µM; in experiment [5], 118 µM.

Consider `O=[N+]([O-])c1ccc(-c2nnc(SCCCN3CCN(c4nc5ccccc5o4)CC3)o2)cc1`, for which the IC50 in experiment [1] is 46.9 µM; in experiment [2], 67.2 µM; in experiment [3], 90.8 µM; in experiment [4] it was 114 µM; in experiment [5] it was 90.1 µM.

For `c1ccc(-c2nnc(SCCCN3CCN(c4nc5ccccc5s4)CC3)o2)cc1`, the IC50 worked out at 93.4 µM in experiment [1]; 217 µM in experiment [2]; 257 µM in experiment [3]; 229 µM in experiment [4]; 76.9 µM in experiment [5].

Regarding `Oc1ccc(-c2nnc(SCCCN3CCN(c4nc5ccccc5s4)CC3)o2)cc1`, the IC50 in experiment [1] turned out to be 54.7 µM; in experiment [2] it was 364 µM; in experiment [3], 62.1 µM; in experiment [4] it was 139 µM; in experiment [5], 81.9 µM.

On to `Cc1ccc(-c2nnc(SCCCN3CCN(c4nc5ccccc5o4)CC3)o2)cc1`, for which the IC50 in experiment [1] was 100 µM; in experiment [2], 154 µM; in experiment [3], 106 µM; in experiment [4], 133 µM; in experiment [5] it was 60.4 µM.

Regarding `CC(C)(C)Oc1ccc(-c2nnc(SCCCN3CCN(c4nc5ccccc5s4)CC3)o2)cc1`, the IC50 in experiment [1] amounted to 67 µM; in experiment [2], 202 µM; in experiment [3] it was 71.6 µM; in experiment [4], 217 µM; in experiment [5], 89.3 µM.

On to `Brc1ccc(-c2nnc(SCCCN3CCN(c4nc5ccccc5o4)CC3)o2)cc1`, for which the IC50 in experiment [1] was 57.8 µM; in experiment [2] it was 67.5 µM; in experiment [3], 123 µM; in experiment [4], 187 µM; in experiment [5], 115 µM.

In the case of `Cc1ccc(-c2nnc(SCCCN3CCN(c4nc5ccccc5s4)CC3)o2)cc1`, the IC50 in experiment [1] turned out to be 61.6 µM; in experiment [2], 96.7 µM; in experiment [3], 53.9 µM; in experiment [4] it was 179 µM; in experiment [5], 107 µM.

Turning to `Clc1ccc(-c2nnc(SCCCN3CCN(c4nc5ccccc5s4)CC3)o2)cc1`, the IC50 came to 69.2 µM in experiment [1]; 87.7 µM in experiment [2]; 110 µM in experiment [3]; 177 µM in experiment [4]; 116 µM in experiment [5].

On to `O=C(NCc1nnc(SCCCN2CCN(c3nc4ccccc4o3)CC2)o1)c1ccccc1`, for which the IC50 came to 36.9 µM in experiment [1]; 88.9 µM in experiment [2]; 102 µM in experiment [3]; 63.9 µM in experiment [4]; 52.7 µM in experiment [5].

On to `Clc1ccc(-c2nnc(SCCCN3CCN(c4nc5ccccc5o4)CC3)o2)cc1`, for which the IC50 in experiment [1] is 89.6 µM; in experiment [2], 121 µM; in experiment [3], 127 µM; in experiment [4], 101 µM; in experiment [5], 99.7 µM.

As to `Fc1ccc(-c2nnc(SCCCN3CCN(c4nc5ccccc5o4)CC3)o2)cc1`, the IC50 turned out to be 136 µM in experiment [1]; 83.8 µM in experiment [2]; 75.7 µM in experiment [3]; 196 µM in experiment [4]; 52.3 µM in experiment [5].

On to `COc1cc(/C=C/C(=O)CC(=O)/C=C/c2ccc(O)c(OC)c2)ccc1O` [CURCUMIN], for which the IC50 in experiment [1] was determined as 22 µM; in experiment [2], 16 µM; in experiment [3], 22 µM; in experiment [5] it was 26 µM.

With `Oc1ccc(-c2nnc(SCCCN3CCN(c4nc5ccccc5o4)CC3)o2)cc1`, the IC50 in experiment [1] stood at 116 µM; in experiment [2], 502 µM; in experiment [3] it was 181 µM; in experiment [4] it was 99.5 µM; in experiment [5], 260 µM.

For the molecule `COc1ccc(-c2nnc(SCCCN3CCN(c4nc5ccccc5o4)CC3)o2)cc1`, the IC50 worked out at 52.7 µM in experiment [1]; 66.1 µM in experiment [2]; 93.5 µM in experiment [3]; 210 µM in experiment [4]; 52.8 µM in experiment [5].

With `c1ccc(-c2nnc(SCCCN3CCN(c4nc5ccccc5o4)CC3)o2)cc1`, the IC50 in experiment [1] turned out to be 57.6 µM; in experiment [2], 102 µM; in experiment [3] it was 108 µM; in experiment [4] it was 67 µM; in experiment [5] it was 117 µM.

For the molecule `O=C(NCc1nnc(SCCCN2CCN(c3nc4ccccc4s3)CC2)o1)c1ccccc1`, the IC50 in experiment [1] is 55.9 µM; in experiment [2], 325 µM; in experiment [3] it was 88.7 µM; in experiment [4], 78.1 µM; in experiment [5] it was 39 µM.

Turning to `COc1ccc(-c2nnc(SCCCN3CCN(c4nc5ccccc5s4)CC3)o2)cc1`, the IC50 in experiment [1] stood at 56.2 µM; in experiment [2], 134 µM; in experiment [3] it was 90.3 µM; in experiment [4], 165 µM; in experiment [5] it was 171 µM.

Consider `Brc1ccc(-c2nnc(SCCCN3CCN(c4nc5ccccc5s4)CC3)o2)cc1`, for which the IC50 is 51.6 µM in experiment [1]; 103 µM in experiment [2]; 62.5 µM in experiment [3]; 243 µM in experiment [4]; 96.3 µM in experiment [5].

For the molecule `CC(C)(C)Oc1ccc(-c2nnc(SCCCN3CCN(c4nc5ccccc5o4)CC3)o2)cc1`, the IC50 came out at 65.8 µM in experiment [1]; 121 µM in experiment [2]; 263 µM in experiment [3]; 269 µM in experiment [4]; 94.9 µM in experiment [5].

In the case of `Fc1ccc(-c2nnc(SCCCN3CCN(c4nc5ccccc5s4)CC3)o2)cc1`, the IC50 in experiment [1] was 67 µM; in experiment [2] it was 234 µM; in experiment [3] it was 71.7 µM; in experiment [4], 134 µM; in experiment [5], 84.1 µM.
